How the values were obtained:
[1] = tested on: HCV replicon 1a WT; test: Cell-based HCV replicon assay, 1a WT; conditions: Hepatitis C virus, 72 h; replicon cells, harvested day 3, replicon RNA by real time PCR (Taqman)
Description: (§1) To measure cell-based anti-HCV activity of selected compounds of the present invention, replicon cells were seeded at 5000 cells/well in 96-well collagen I-coated Nunc plates in the presence of the test compound. Various concentrations of test compound, typically in 10 serial 2-fold dilutions, were added to the assay mixture, with the starting concentration ranging from 250 μM to 1 μM. The final concentration of DMSO was 0.5%, fetal bovine serum was 5%, in the assay media. Cells were harvested on day 3 by the addition of 1× cell lysis buffer (Ambion cat #8721). The replicon RNA level was measured using real time PCR (Taqman assay). The amplicon was located in 5B. The PCR primers were: 5B.2F, ATGGACAGGCGCCCTGA (SEQ. ID. NO. 1); 5B.2R, […] (SEQ. ID. NO. 2); the probe sequence was FAM-labeled CACGCCATGCGCTGCGG (SEQ. ID. NO. 3). GAPDH RNA was used as endogenous control and was amplified in the same reaction as NS5B (multiplex PCR) using primers and VIC-labeled probe recommended by the manufacturer (PE Applied Biosystem). The real-time RT-PCR reactions were run on ABI PRISM 7900HT Sequence Detection System using the following program: 48° C. for 30 minutes, 95° C. for 10 minutes, 40 cycles of 95° C. for 15 sec, 60° C. for 1 minutes. The ΔCT values (CT5B-CTGAPDH) were plotted against the concentration of test compound and fitted to the sigmoid dose-response model using XLfit4 (MDL). […] Alternatively, to quantitate the absolute amount of replicon RNA, a standard curve was established by including serially diluted T7 transcripts of replicon RNA in the Taqman assay. All Taqman reagents were from PE Applied Biosystems. Such an assay procedure was described in detail in e.g. Malcolm et al., Antimicrobial Agents and Chemotherapy 50: 1013-1020 (2006).
(§2) HCV replicon assay data was calculated for selected compounds of the present invention using this method and is provided in the table below.

[2] = tested on: HCV replicon 1b WT; test: Cell-based HCV replicon assay, 1b WT; conditions: Hepatitis C virus, 72 h; replicon cells, harvested day 3, replicon RNA by real time PCR (Taqman)
Description: as §1, §2

[3] = tested on: HCV replicon 2a WT; test: Cell-based HCV replicon assay, 2a WT; conditions: Hepatitis C virus, 72 h; replicon cells, harvested day 3, replicon RNA by real time PCR (Taqman)
Description: as §1, §2

[4] = tested on: HCV replicon 3a WT; test: Cell-based HCV replicon assay, 3a WT; conditions: Hepatitis C virus, 72 h; replicon cells, harvested day 3, replicon RNA by real time PCR (Taqman)
Description: as §1, §2

[5] = tested on: HCV replicon 1a Y93H; test: Cell-based HCV replicon assay, 1a Y93H; conditions: Hepatitis C virus, 72 h, read-out: Replicon EC50 1a Y93H
Description: as §1, §2

[6] = tested on: HCV replicon 4a WT; test: Cell-based HCV replicon assay, 4a WT; conditions: Hepatitis C virus, 72 h; replicon cells, harvested day 3, replicon RNA by real time PCR (Taqman)
Description: as §1, §2

[7] = tested on: HCV replicon 2b WT; test: Cell-based HCV replicon assay, 2b WT; conditions: Hepatitis C virus, 72 h; replicon cells, harvested day 3, replicon RNA by real time PCR (Taqman)
Description: as §1, §2

COC(=O)N[C@H](C(=O)N1CCC[C@H]1c1ncc(-c2ccc3c(c2)-n2ccc4c(-c5cnc([C@@H]6CCCN6C(=O)[C@@H](NC(=O)OC)C(C)C)[nH]5)ccc(c42)O3)[nH]1)C(C)C [Compound 5, Methyl [(2S)-1-{(2S)-2-[5-(3-{2-[(2S)-1-{(2S)-2-[(methoxycarbonyl)amino]-3-methyl-butanoyl}pyrrolidin-2-yl]-1H-imidazol-5-yl}pyrrolo[3,2,1-kl]phenoxazin-9-yl)-1H-imidazol-2-yl]pyrrolidin-1-yl}-3-methyl-1-oxobutan-2-yl]carbamate]
EC50 [1]: > 26 nM | EC50 [2]: 19 nM | EC50 [3]: 20 nM

COC(=O)N[C@@H](C(=O)N1CCC[C@H]1c1ncc(-c2ccc3c(c2)Oc2ccc(-c4cnc([C@@H]5CCCN5C(=O)[C@H](NC(=O)OC)c5ccccc5)[nH]4)c4ccn-3c24)[nH]1)c1ccccc1 [Compound 3, Dimethyl (pyrrolo[3,2,1-kl]phenoxazine-3,8-diylbis{1H-imidazole-5,2-diyl(2S)pyrrolidine-2,1-diyl[(1R)-2-oxo-1-phenylethane-2,1-diyl]})biscarbamate]
EC50 [4]: 0.019 nM | EC50 [1]: 0.097 nM | EC50 [2]: 0.007 nM | EC50 [5]: 348 nM | EC50 [6]: 0.04 nM | EC50 [3]: 0.006 nM

COC(=O)N[C@H](C(=O)N1CC(F)(F)C[C@H]1c1ncc(-c2ccc3c(c2)Oc2ccc(-c4cnc([C@@H]5CC(F)(F)CN5C(=O)[C@@H](NC(=O)OC)C(C)C)[nH]4)c4ccn-3c24)[nH]1)C(C)C [Compound 8, Methyl [(2S)-1-{(2S)-2-[5-(3-{2-[(2S)-4,4-difluoro-1-{(2S)-2-[(methoxycarbonyl)amino]-3-methylbutanoyl}pyrrolidin-2-yl]-1H-imidazol-5-yl}pyrrolo[3,2,1-kl]phenoxazin-8-yl)-1H-imidazol-2-yl]-4,4-difluoropyrrolidin-1-yl}-3-methyl-1-oxobutan-2-yl]carbamate]
EC50 [4]: 0.31 nM | EC50 [1]: 0.004 nM | EC50 [2]: 0.001 nM | EC50 [5]: 11.5 nM | EC50 [6]: 0.019 nM

COC(=O)N[C@H](C(=O)N1CCC[C@H]1c1ncc(-c2cc3c4c(c2)Oc2ccc(-c5cnc([C@@H]6CCCN6C(=O)[C@@H](NC(=O)OC)C(C)C)[nH]5)cc2N4CCC3)[nH]1)C(C)C [Compound 12, Methyl [(2S)-1-{(2S)-2-[5-(5-{2-[(2S)-1-{(2S)-2-[(methoxycarbonyl)amino]-3-methylbutanoyl}pyrrolidin-2-yl]-1H-imidazol-5-yl}-2,3-dihydro-1H-pyrido[3,2,1-kl]phenoxazin-10-yl)-1H-imidazol-2-yl]pyrrolidin-1-yl}-3-methyl-1-oxobutan-2-yl]carbamate]
EC50 [4]: 0.375 nM | EC50 [1]: 0.056 nM | EC50 [2]: 0.003 nM | EC50 [5]: 115 nM | EC50 [6]: 0.13 nM | EC50 [3]: 0.002 nM

COC(=O)N[C@H](C(=O)N1CCC[C@H]1c1ncc(-c2ccc3c(c2)Oc2cc(-c4cnc([C@@H]5CCCN5C(=O)[C@@H](NC(=O)OC)C(C)C)[nH]4)cc4c2N3CCC4)[nH]1)C(C)C [Compound 11, Methyl [(2S)-1-{(2S)-2-[5-(5-{2-[(2S)-1-{(2S)-2-[(methoxycarbonyl)amino]-3-methylbutanoyl}pyrrolidin-2-yl]-1H-imidazol-5-yl}-2,3-dihydro-1H-pyrido[3,2,1-kl]phenoxazin-9-yl)-1H-imidazol-2-yl]pyrrolidin-1-yl}-3-methy-1-oxobutan-2-yl]carbamate]
EC50 [4]: 10 nM | EC50 [1]: 0.1 nM | EC50 [2]: 0.031 nM | EC50 [5]: 504 nM | EC50 [6]: 1.02 nM | EC50 [3]: 0.345 nM

COC(=O)N[C@H](C(=O)N1CCC[C@H]1c1ncc(-c2cc3c4c(c2)Oc2ccc(-c5cnc([C@@H]6CCCN6C(=O)[C@@H](NC(=O)OC)C(C)C)[nH]5)cc2C4CO3)[nH]1)C(C)C (stereo partly drawn) [Compound 15, Methyl [(2S)-1-{(2S)-2-[5-(4-{2-[(2S)-1-{(2S)-2-[(methoxycarbonyl)amino]-3-methylbutanoyl}pyrrolidin-2-yl]-1H-imidazol-5-yl}-1,10b-dihydrofuro[2,3,4-kl]xanthen-9-yl)-1H-imidazol-2-yl]pyrrolidin-1-yl}-3-methyl-1-oxobutan-2-yl]carbamate]
EC50 [4]: 0.52 nM | EC50 [1]: 0.06 nM | EC50 [2]: 0.004 nM | EC50 [5]: 83 nM | EC50 [6]: 0.39 nM

COC(=O)N[C@H](C(=O)N1C[C@H](F)C[C@H]1c1ncc(-c2ccc3c(c2)Oc2ccc(-c4cnc([C@@H]5C[C@@H](F)CN5C(=O)[C@@H](NC(=O)OC)C(C)C)[nH]4)c4ccn-3c24)[nH]1)C(C)C [Compound 9, Methyl [(2S)-1-{(2S,4R)-4-fluoro-2-[5-(3-{2-[(2S,4R)-4-fluoro-1-{(2S)-2-[(methoxycarbonyl)amino]-3-methylbutanoyl}pyrrolidin-2-yl]-1H-imidazol-5-yl}pyrrolo[3,2,1-kl]phenoxazin-8-yl)-1H-imidazol-2-yl]pyrrolidin-1-yl}-3-methyl-1-oxobutan-2-yl]carbamate]
EC50 [4]: 1.5 nM | EC50 [1]: 0.01 nM | EC50 [2]: 0.005 nM | EC50 [5]: 27.5 nM | EC50 [6]: 0.1 nM

COC(=O)N[C@H](C(=O)N1CCC[C@H]1c1ncc(-c2ccc3c(c2)Oc2cc(-c4cnc([C@@H]5CCCN5C(=O)[C@@H](NC(=O)OC)C(C)C)[nH]4)cc4c2N3CC4)[nH]1)C(C)C [Compound 7, Methyl [(2S)-1-{(2S)-2-[5-(4-{2-[(2S)-1-{(2S)-2-[(methoxycarbonyl)amino]-3-methylbutanoyl}pyrrolidin-2-yl]-1H-imidazol-5-yl}-1,2-dihydropyrrolo[3,2,1-kl]phenoxazin-8-yl)-1H-imidazol-2-yl]pyrrolidin-1-yl}-3-methyl-1-oxobutan-2-yl]carbamate]
EC50 [4]: 1.1 nM | EC50 [1]: 0.1 nM | EC50 [2]: 0.044 nM | EC50 [5]: 263 nM | EC50 [6]: 1.05 nM | EC50 [3]: 0.063 nM

COC(=O)N[C@H](C(=O)N1CC(F)(F)C[C@H]1c1ncc(-c2ccc3c(c2)Oc2ccc(-c4cnc([C@@H]5CC(F)(F)CN5C(=O)[C@@H](NC(=O)OC)C(C)C)[nH]4)c4c2N3CC4)[nH]1)C(C)C [Compound 18]
EC50 [7]: 40 nM | EC50 [4]: 0.936 nM | EC50 [1]: 0.009 nM | EC50 [2]: 0.002 nM | EC50 [5]: 32 nM | EC50 [6]: 0.056 nM

COC(=O)N[C@H](C(=O)N1CCC[C@H]1c1ncc(-c2ccc3c(c2)Oc2ccc(-c4cnc([C@@H]5CCCN5C(=O)[C@@H](NC(=O)OC)C5CC5)[nH]4)c4ccn-3c24)[nH]1)C1CC1 [Compound 4, Dimethyl (pyrrolo[3,2,1-kl]phenoxazine-3,8-diylbis{1H-imidazole-5,2-diyl(2S)-pyrrolidine-2,1-diyl[(1S)-1-cyclopropyl-2-oxoethane-2,1-diyl]})biscarbamate]
EC50 [4]: 1.9 nM | EC50 [1]: 0.007 nM | EC50 [2]: 0.006 nM | EC50 [5]: 64.4 nM | EC50 [6]: 3.12 nM | EC50 [3]: 0.012 nM

COC(=O)N[C@H](C(=O)N1CCC[C@H]1c1ncc(-c2ccc3c(c2)Oc2ccc(-c4cnc([C@@H]5CCCN5C(=O)[C@@H](NC(=O)OC)C(C)(C)C)[nH]4)c4ccn-3c24)[nH]1)C(C)(C)C [Compound 2, Methyl [(2S)-1-{(2S)-2-[5-(3-(2-[(2S)-1-(2S)-2-[(methoxycarbonyl)amino]-3,3-di-methylbutanoyl}pyrrolidin-2-yl]-1H-imidazol-5-ylpyrrolo[3,2,1-kl]phenoxazin-8-yl)-1H-imidazol-2-yl]pyrrolidin-1-yl)-3,3-dimethyl-1-oxobutan-2-yl]carbamate]
EC50 [4]: 1.26 nM | EC50 [1]: 0.0736 nM | EC50 [2]: 0.00443 nM | EC50 [5]: 454 nM | EC50 [6]: 4.91 nM | EC50 [3]: 0.018 nM

COC(=O)N[C@H](C(=O)N1CCC[C@H]1c1ncc(-c2ccc3c(c2)Oc2ccc(-c4cnc([C@@H]5CCCN5C(=O)[C@@H](NC(=O)OC)C(C)C)[nH]4)c4cnn-3c24)[nH]1)C(C)C [Compound 10, Methyl [(2S)-1-{(2S)-2-[5-(3-{2-[(2S)-1-{(2S)-2-[(methoxycarbonyl)amino]-3-methylbutanoyl}pyrrolidin-2-yl]-1H-imidazol-5-yl}pyrazolo[4,5,1-kl]phenoxazin-8-yl)-1 H-imidazol-2-yl]pyrrolidin-1-yl}-3-methyl-1-oxobutan-2-yl]carbamate]
EC50 [7]: 49 nM | EC50 [4]: 0.69 nM | EC50 [1]: 0.027 nM | EC50 [2]: 0.005 nM | EC50 [5]: 35.1 nM | EC50 [6]: 0.37 nM | EC50 [3]: 0.003 nM

COC(=O)N[C@H](C(=O)N1CC(F)(F)C[C@H]1c1ncc(-c2ccc3c(c2)Oc2ccc(-c4cnc([C@@H]5CC(F)(F)CN5C(=O)[C@@H](NC(=O)OC)C(C)C)[nH]4)c4c2N3CCC4)[nH]1)C(C)C [Compound 19]
EC50 [7]: 122 nM | EC50 [4]: 10 nM | EC50 [1]: 0.1 nM | EC50 [2]: 0.003 nM | EC50 [6]: 0.17 nM | EC50 [3]: 0.53 nM
